PubChem BioAssay (NCI)
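Interpolation was linear, between the two tested concentrations surrounding the appropriate level; five concentrations were tested over 48 hours in 96-well plates. TGI denotes the concentration required for complete inhibition of growth.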

Assays:
Assay in all cases: NCI-60 cell line screen, 48 h
OVCAR-8 ovarian = tested on: OVCAR-8 ovarian
SK-MEL-28 melanoma = tested on: SK-MEL-28 melanoma
MALME-3M melanoma = tested on: MALME-3M melanoma
MDA-MB-435 = tested on: MDA-MB-435
IGROV1 ovarian = tested on: IGROV1 ovarian
RXF 393 renal = tested on: RXF 393 renal
HL-60(TB) leukemia = tested on: HL-60(TB) leukemia
RPMI-8226 leukemia = tested on: RPMI-8226 leukemia
OVCAR-5 ovarian = tested on: OVCAR-5 ovarian
TK-10 renal = tested on: TK-10 renal
HS 578T breast = tested on: HS 578T breast
EKVX NSCLC = tested on: EKVX NSCLC
DU-145 prostate = tested on: DU-145 prostate
SR leukemia = tested on: SR leukemia
SK-OV-3 ovarian = tested on: SK-OV-3 ovarian
MDA-N = tested on: MDA-N
ACHN renal = tested on: ACHN renal

Structure (SMILES)	TGI (OVCAR-8 ovarian) [µM]	TGI (SK-MEL-28 melanoma) [µM]	TGI (MALME-3M melanoma) [µM]	TGI (MDA-MB-435) [µM]	TGI (IGROV1 ovarian) [µM]	TGI (RXF 393 renal) [µM]	TGI (HL-60(TB) leukemia) [µM]	TGI (RPMI-8226 leukemia) [µM]	TGI (OVCAR-5 ovarian) [µM]	TGI (TK-10 renal) [µM]	TGI (HS 578T breast) [µM]	TGI (EKVX NSCLC) [µM]	TGI (DU-145 prostate) [µM]	TGI (SR leukemia) [µM]	TGI (SK-OV-3 ovarian) [µM]	TGI (MDA-N) [µM]	TGI (ACHN renal) [µM]
Cc1ccc2c(c1)C(=O)C1(C2)Cc2c(C)cccc2C1=O (centres undefined)	> 100	> 100	> 100	> 100	> 100	> 100	> 100	> 100	> 100	> 100	> 100	> 100	> 100	> 100	> 100	> 100	> 100
O=C(CC(O)(C(F)(F)F)C(F)(F)F)C(c1ccccc1)C(O)(C(F)(F)F)C(F)(F)F (centres undefined)	> 100	> 100	> 100	> 100	> 100	25.2		> 100	> 100	> 100	41.8	> 100	> 100	> 100	88.8	> 100	79.5
CC(=O)Nc1ccc(-c2nc3ccccc3s2)cc1Br	> 93.7	> 100	> 100	> 100	17.4	66	> 100	> 100			69.1	> 97.1	> 91.4	> 100	75	> 100	> 100
CC(C)CCCC(C)[C@H]1CC[C@H]2n3c(nnc3-c3ccccc3)CCC[C@]12C (some centres undefined)	67.2	37.1	53.1	25.7	23.4	27	16.2	21.1		57.2	43.3		83	26.3	26.9	31	
Cc1sc2nc(N(C)C)oc(=O)c2c1C	> 100	> 100	> 100	> 100	> 100	> 100	> 100	> 100	> 100	> 100	> 100	> 100	> 100	> 100	> 100	> 100	> 100
C[C@]12CC[C@H]3[C@@H](CCC4=CC(=O)CC[C@@H]43)[C@@H]1CC[C@]2(O)C(N)=O	> 100	> 100	> 100	> 100	> 100	> 100	> 100	> 100	> 100	> 100	> 100	> 100	> 100	> 100	> 100	> 100	> 100
CC[C@]12C=CCN3CC[C@@]4(c5cc(Br)c(OC)c([N+](=O)[O-])c5N(C)[C@H]4[C@@](O)(C(=O)OC)[C@@H]1OC(C)=O)[C@@H]32	> 100	> 100	> 100	> 100	61.4	> 100	> 100	> 100	> 100	> 100	> 100	91.4	> 100	> 100	> 100	> 100	> 100
COC(=O)c1ccccc1/C=C1\Cc2c(ccc3c2CCC3)C1=O	> 100	> 100	> 100	> 100	> 100	> 100	> 100	> 100	> 100	> 100	> 100	> 100	> 100	> 100		> 100	> 100
CC(=O)OCC1OC(NC(=S)Nn2c(=O)[nH]c3ccccc3c2=O)C(OC(C)=O)C(OC(C)=O)C1OC(C)=O (centres undefined)	> 100	> 100	> 100	> 100	> 100	> 100	> 100	> 100	> 100		> 100	> 100	> 100	> 100	> 100	> 100	> 100
CCSc1nnc(Sc2c3ccccc3nc3ccccc23)s1	> 51.5	> 59.1	> 100	> 61.8	> 55	35.3		> 28	43.4	15.8	> 100	16.7	30.2	> 100	> 100	25.1	17.7
COc1cccc(Nc2nc(C)c([N+](=O)[O-])c(Nc3cccc(OC)c3)n2)c1	> 100	> 100	> 100		> 100	35.2	> 100	45.9	> 100	95.7	> 100	78.4	56.1	> 100	> 100	> 100	> 100
COC(=O)c1ccccc1/C=C1\Cc2c(C)c3c(c(C)c2C1=O)CCC3	> 100	> 100	> 100	> 100	> 100	> 100	> 100	> 100	> 100	> 100	95.6	> 100	> 100	> 100		> 100	> 100
Cc1c2c(cc3c1C(=O)C(=O)C([C@@H](C)CO)=C3O)C(C)(C)CCC2	> 100	> 100	57.1	> 100	> 100	92.3		> 100	> 100	> 100	> 100	> 100	> 100	56.7	> 100	> 100	
CC1=CC[C@H](C[C@H](C#CCCCC2OCCO2)O[Si](C(C)C)(C(C)C)C(C)C)C(=O)CC1	> 100	> 100	> 100	> 100	> 100	> 100		> 100	> 100	> 100	> 100	> 100	> 100	> 100	> 100	> 100	> 100
